The structures appear in SMILES notation.

Consider 1 molecule from paper PMC7503597 (International Journal of Molecular Sciences, 2020).

The target in the assay is T1, D3R-ELucC (Homo sapiens, UniProt P35462).
T1 construct: gene DRD3
Put plainly: cell-based. The note with it: HEK-293T, read-out: β-Arrestin2 Recruitment / Emax [%].

T1 sequence (P35462 whole entry): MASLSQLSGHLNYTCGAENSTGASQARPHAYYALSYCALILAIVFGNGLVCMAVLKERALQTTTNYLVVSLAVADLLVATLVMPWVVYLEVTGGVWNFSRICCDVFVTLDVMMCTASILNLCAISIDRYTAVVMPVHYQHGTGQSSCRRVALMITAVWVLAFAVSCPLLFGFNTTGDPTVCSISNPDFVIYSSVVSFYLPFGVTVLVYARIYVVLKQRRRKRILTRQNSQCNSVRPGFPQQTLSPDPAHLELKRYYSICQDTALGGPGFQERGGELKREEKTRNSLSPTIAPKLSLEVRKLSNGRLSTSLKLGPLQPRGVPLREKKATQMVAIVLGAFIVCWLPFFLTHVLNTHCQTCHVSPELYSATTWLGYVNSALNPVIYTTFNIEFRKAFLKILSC

Turning to `CCN1CCC[C@H]1CNC(=O)c1cc(S(N)(=O)=O)ccc1OC` [S-(−)-sulpiride], the Emax is -26 ± 8%.
